Target: Aβ42 (Homo sapiens, UniProt P05067)
Assay: Grating-Coupled Interferometry (GCI) binding to immobilized Aβ42
Details: GCI fit quality parameter

Chain of Aβ42 (P05067 672-713 limits assumed): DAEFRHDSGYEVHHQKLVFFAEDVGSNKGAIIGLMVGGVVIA

## COC(=O)[C@H](Cc1cn(CCCC[C@H](NC(=O)CNC(C)=O)C(=O)N2CCC[C@H]2C(=O)NCC(=O)N[C@@H](CCCCN)C(=O)N[C@@H](CC(C)C)C(=O)N[C@H](C(=O)N[C@@H](Cc2ccccc2)C(=O)N[C@@H](Cc2ccccc2)C(N)=O)C(C)C)nn1)NC(=O)c1ccc(-c2c3nc(c(-c4cc[n+](C)cc4)c4ccc([nH]4)c(-c4cc[n+](C)cc4)c4nc(c(-c5cc[n+](C)cc5)c5ccc2[nH]5)C=C4)C=C3)cc1 [Zn‐Ph‐Pep]
  χ^2 (average of the squared residuals, fitting confidence): 0.49±0.09

— paper PMC11610669, “A Spectroscopic Study on the Amyloid‐β Interaction with Clicked Peptide‐Porphyrin Conjugates: a Vision Toward the Detection of Aβ Peptides in Aqueous Solution” (Chembiochem, 2024)
